Experimental data: ChEMBL document CHEMBL6103588, “Promising thiazolidinedione-thiazole based multi-target and neuroprotective hybrids for Alzheimer's disease: Design, synthesis, in-vitro, in-vivo and in-silico studies” (Eur J Med Chem, 2025); call rule not given here

Experiments:
[1] = Acute toxicity in male Swiss albino mouse assessed as survival time at 450 mg/kg BW, po administered as single dose via gavage by up-and-down method; type: organism-based; conditions: in vivo
[2] = biological target: Acetylcholinesterase (Electrophorus electricus) (UniProt O42275); test: Mixed-type inhibition of electric eel AChE using acetylthiocholine iodide as substrate assessed as decrease in Vmax […] at 0.036 to 0.144 uM preincubated for 15 mins by Lineweaver-burk plot analysis; conditions: dose 0.036-0.144 µM
Chain of Acetylcholinesterase (Electrophorus electricus) (O42275 24-633 limits assumed): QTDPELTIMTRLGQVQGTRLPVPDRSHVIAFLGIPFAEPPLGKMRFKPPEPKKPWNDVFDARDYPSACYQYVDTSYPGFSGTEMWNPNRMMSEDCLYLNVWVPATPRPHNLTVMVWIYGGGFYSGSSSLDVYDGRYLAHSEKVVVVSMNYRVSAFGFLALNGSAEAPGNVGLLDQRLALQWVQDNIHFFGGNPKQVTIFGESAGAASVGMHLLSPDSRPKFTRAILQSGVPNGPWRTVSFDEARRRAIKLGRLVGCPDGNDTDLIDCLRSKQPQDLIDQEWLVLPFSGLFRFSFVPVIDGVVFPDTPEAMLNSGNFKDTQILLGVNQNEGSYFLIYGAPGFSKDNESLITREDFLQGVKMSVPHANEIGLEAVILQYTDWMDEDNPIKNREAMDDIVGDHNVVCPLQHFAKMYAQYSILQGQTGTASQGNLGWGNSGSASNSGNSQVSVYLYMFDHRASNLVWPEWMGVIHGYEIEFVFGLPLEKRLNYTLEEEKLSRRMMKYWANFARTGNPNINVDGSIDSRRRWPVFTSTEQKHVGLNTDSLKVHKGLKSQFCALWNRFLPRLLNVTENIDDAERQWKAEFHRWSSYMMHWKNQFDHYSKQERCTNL

[3] = Acute toxicity in male Swiss albino mouse assessed as piloerection at 450 mg/kg BW, po administered as single dose via gavage measured after 1 hrs by up-and-down method; type: organism-based; conditions: in vivo
[4] = Neurotoxicity against human SH-SY5Y cells assessed as reduction in cell viability at 100 uM incubated for 24 hrs by MTT assay relative to control; type: toxicity, cell-based
[5] = Acute toxicity in male Swiss albino mouse assessed as signs of discomfort at 1200 mg/kg BW, po administered as single dose via gavage measured after 20 mins by up-and-down method; type: organism-based; conditions: in vivo
PC-12 = test: Neuroprotective activity against H2O2-induced rat PC12 cells assessed as protection against H2O2-induced oxidative stress by measuring cell viability at 25 uM pretreated for 24 hr followed by H2O2 addition and measured after 24 hrs by MTT reagent based spectrophotometric analysis (reference value: 47.32 %); type: functional; conditions: time 48 hrs
[6] = biological target: T1, Prostaglandin G/H synthase 2 (Homo sapiens, UniProt P35354)
T1 sequence (P35354 whole entry): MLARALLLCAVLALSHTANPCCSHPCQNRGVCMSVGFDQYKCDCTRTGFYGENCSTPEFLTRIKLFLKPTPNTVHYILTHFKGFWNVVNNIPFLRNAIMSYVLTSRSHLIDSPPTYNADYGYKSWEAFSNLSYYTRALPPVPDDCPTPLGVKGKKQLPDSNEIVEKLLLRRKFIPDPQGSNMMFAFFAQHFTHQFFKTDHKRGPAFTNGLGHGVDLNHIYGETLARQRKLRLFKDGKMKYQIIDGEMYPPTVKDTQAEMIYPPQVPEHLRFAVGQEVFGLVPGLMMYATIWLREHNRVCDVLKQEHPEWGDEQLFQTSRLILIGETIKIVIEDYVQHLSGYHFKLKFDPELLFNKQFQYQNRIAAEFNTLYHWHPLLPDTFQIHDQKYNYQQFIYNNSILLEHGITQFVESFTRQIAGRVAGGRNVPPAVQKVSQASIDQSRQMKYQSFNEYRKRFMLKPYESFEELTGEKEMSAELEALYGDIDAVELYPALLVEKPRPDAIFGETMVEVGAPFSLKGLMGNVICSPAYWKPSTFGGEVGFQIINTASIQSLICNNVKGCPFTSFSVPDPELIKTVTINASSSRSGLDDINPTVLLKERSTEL
Description: Inhibition of COX-2 (unknown origin) using arachidonic acid as substrate and in presence of TMPD preincubated for 5 mins followed by substrate addition and measured after 5 mins by UV visible spectrophotometric analysis

[7] = biological target: T2, Amine oxidase [flavin-containing] A (Homo sapiens, UniProt P21397); test: Inhibition of human MAO-A using tyramine/benzylamine as substrate measured after 30 mins by fluorometric assay; conditions: read-out: IC50
T2 sequence (P21397 whole entry): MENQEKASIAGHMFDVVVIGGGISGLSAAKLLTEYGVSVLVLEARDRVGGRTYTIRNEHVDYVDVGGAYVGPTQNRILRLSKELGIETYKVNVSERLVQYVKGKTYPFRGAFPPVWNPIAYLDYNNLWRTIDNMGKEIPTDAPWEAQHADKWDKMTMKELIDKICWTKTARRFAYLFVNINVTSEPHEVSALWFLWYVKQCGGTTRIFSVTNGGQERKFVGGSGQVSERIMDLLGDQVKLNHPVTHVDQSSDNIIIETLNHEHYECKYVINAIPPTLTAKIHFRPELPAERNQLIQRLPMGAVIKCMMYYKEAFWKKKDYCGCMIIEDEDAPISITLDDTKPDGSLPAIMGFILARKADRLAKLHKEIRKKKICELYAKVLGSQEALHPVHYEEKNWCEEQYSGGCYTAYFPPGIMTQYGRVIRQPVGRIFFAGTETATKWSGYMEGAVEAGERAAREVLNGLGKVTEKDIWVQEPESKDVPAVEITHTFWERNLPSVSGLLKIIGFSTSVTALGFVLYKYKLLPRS

[8] = biological target: Prostaglandin G/H synthase 1 (Homo sapiens, UniProt P23219); conditions: read-out: IC50
Chain of Prostaglandin G/H synthase 1 (P23219 whole entry): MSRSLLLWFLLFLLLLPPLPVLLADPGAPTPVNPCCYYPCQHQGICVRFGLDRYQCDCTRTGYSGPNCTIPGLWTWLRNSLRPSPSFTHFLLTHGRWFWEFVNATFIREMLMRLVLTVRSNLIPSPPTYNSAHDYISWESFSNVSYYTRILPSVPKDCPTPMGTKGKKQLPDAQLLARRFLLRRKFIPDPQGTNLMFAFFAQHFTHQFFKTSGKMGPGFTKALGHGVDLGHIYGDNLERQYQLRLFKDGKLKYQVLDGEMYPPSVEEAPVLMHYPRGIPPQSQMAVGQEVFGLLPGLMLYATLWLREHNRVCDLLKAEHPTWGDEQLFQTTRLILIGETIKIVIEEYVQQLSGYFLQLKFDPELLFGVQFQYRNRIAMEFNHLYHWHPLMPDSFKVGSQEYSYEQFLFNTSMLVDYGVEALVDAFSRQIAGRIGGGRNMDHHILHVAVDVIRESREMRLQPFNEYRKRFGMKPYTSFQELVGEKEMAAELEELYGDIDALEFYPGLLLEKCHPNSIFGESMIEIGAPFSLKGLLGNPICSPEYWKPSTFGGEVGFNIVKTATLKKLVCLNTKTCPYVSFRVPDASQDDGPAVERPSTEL

[9] = Acute toxicity in male Swiss albino mouse assessed as mortality rate at 650 mg/kg BW, po administered as single dose via gavage measured after 48 hrs by up-and-down method relative to control; type: organism-based; conditions: in vivo
[10] = biological target: T3, Polyunsaturated fatty acid 5-lipoxygenase (Homo sapiens, UniProt P09917); test: Inhibition of 5-LOX (unknown origin) using linoleic acid as substrate incubated for 5 mins followed by substrate addition
T3 sequence (P09917 whole entry): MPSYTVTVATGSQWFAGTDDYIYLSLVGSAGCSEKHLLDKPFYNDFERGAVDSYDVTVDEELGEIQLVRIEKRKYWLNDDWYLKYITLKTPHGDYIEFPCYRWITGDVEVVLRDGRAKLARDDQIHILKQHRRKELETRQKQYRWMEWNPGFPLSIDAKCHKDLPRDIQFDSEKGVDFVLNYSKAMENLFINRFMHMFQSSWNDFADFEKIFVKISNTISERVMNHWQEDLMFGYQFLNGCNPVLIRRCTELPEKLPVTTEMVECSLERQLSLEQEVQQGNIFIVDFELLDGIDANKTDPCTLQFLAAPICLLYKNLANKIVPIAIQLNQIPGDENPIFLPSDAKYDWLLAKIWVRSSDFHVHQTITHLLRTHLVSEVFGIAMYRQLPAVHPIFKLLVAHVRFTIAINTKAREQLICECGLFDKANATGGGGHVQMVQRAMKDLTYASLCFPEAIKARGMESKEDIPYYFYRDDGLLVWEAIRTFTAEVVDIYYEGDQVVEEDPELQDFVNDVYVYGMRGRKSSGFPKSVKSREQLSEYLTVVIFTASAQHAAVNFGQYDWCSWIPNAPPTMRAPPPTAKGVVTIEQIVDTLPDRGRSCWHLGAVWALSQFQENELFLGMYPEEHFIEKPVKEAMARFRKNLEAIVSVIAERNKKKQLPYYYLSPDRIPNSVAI

Mus musculus = test: Antioxidant activity against scopolamine-induced Albino mouse assessed as increase in SOD level in brain at 5 mg/kg measured after 24 hrs; type: functional

Question: With COc1cc(/C=C/C(=O)Nc2ccc3sc(NCN4C(=O)CSC4=O)nc3c2)ccc1O as the compound, how does the Time [1] read?
Answer: > 48 h

Question: What about the inhibition [2] of the same compound?
Answer: Active; Inhibition Of Free Enzyme And Enzyme-Substrate Complex.

Question: And the Activity [3]?
Answer: Toxic

Question: What about the Activity [4] of the same compound?
Answer: 76%

Question: And the Activity [5]?
Answer: Toxic

Question: And the Activity (PC-12)?
Answer: 83.01%

Question: What about the IC50 [6] of the same compound?
Answer: 0.187 µM

Question: And the IC50 [7]?
Answer: 14.5 µM

Question: What about the IC50 [8] of the same compound?
Answer: 60.4 µM

Question: And the mortality at 48 h [9]?
Answer: 28.6%

Question: What about the IC50 [10] of the same compound?
Answer: 0.18 µM

Question: And the Activity (Mus musculus)?
Answer: 95.03 U/ml
